Data as given in patent US20250281629A1, “COMPOSITIONS AND METHODS FOR ANTI-PHOSPHOCHOLINE ACTIVE IMMUNOTHERAPY” (Duke University, priority 2022, published 2025).
Where no end group is shown, it is not given here.

Experiments:
Type in all cases: in vivo, mouse
ZO-1 = test: Immunofluorescence of colon tight junction protein ZO-1; settings: week 5; vs PBS control mice
Method: (§1) Immunofluorescence Imaging and Analysis. Immunofluorescence was conducted on sections from proximal colon samples frozen in OCT and sectioned. Slides were first thawed and outlined with a hydrophobic pen (ImmEdge Hydrophobic Barrier PAP Pen, Vector Labs, H-4000) then fixed with 4% paraformaldehyde for 10 min at room temperature. The slides were washed three times with wash buffer (1×PBS+100 mM CaCl2+100 mM MgCl) for 10 min at room temperature then incubated in a blocking solution containing 0.3% Triton X-100 and 10% normal donkey serum in 1×PBS+100 mM CaCl2+100 mM MgCl for 1 h at room temperature. The slides were then incubated in the primary antibodies (rat anti-ZO-1, clone R40.70, Fisher Scientific, MABT11; rabbit anti-occludin, clone EPR20992, Abcam, ab216327) diluted 1:100 in the blocking solution overnight at 4° C. The slides were washed three times with wash buffer for 10 min at room temperature. They were then incubated in the secondary antibodies (donkey anti-rat Alexa Fluor™ 568, Thermo Fisher, A78946; donkey anti-rabbit Alexa Fluor™ 647, Thermo Fisher, A31573) and nuclear marker DAPI diluted 1:500 in the blocking solution for 2 h at room temperature. […] The intensities of each marker were quantified using ImageJ and expressed as the integrated density of the fluorescent signal normalized to the area fraction of DAPI positive pixels. […]

occludin = test: Immunofluorescence of colon tight junction protein occludin; settings: week 5; vs PBS control mice
Method: as §1

C57BL/6 mice = test: Therapeutic DSS colitis model (immunization between DSS cycles)
Excerpt: DSS-Induced Colitis and Assessment. Before inducing colitis, mice from each treatment group were divided amongst the cages to avoid any cage-related disease effects. This excluded the PBS without DSS (healthy) control mice which remained in their own cage and received normal drinking water for the duration of the experiment. Colitis was induced by administering 2% (w/v) colitis-grade dextran sodium sulfate (MP Biomedicals, 160110) in drinking water. For determination of prophylactic immunization efficacy, mice were immunized i.p. 3 times at days −35, −21 and −7 before colitis induction on Day 0. Chronic colitis was induced via DSS-containing water given for 5 days followed by 5 days of normal drinking water for 3 cycles, resulting in a 30-day model. A shorter, acute DSS-induced colitis model consisting of one cycle of colitis was achieved by giving 5 days of 2% DSS in water followed by 5 days of normal drinking water for a total of 10 days and was also examined in a preventative immunization scenario. Mice were weighed daily and evaluated for the IACUC approved humane endpoint of >30% weight loss as DSS mice regain weight quickly after DSS administration ceases. They were also monitored for occult blood with Hemoccult tape and developer (Beckman Coulter, 63202) and fecal consistency. […] At the experimental endpoint, mice were euthanized, and colon lengths were measured from the base of the cecum to the rectum using digital calibrators. […] Mice were monitored daily as described above until they on average regained their original body weight on day 20. […] The entire therapeutic model ended on day 60, and colon lengths were measured as described above.
FITC-dextran Measurements. […] To determine the intestinal barrier permeability, serum samples were diluted in 1×PBS and FITC fluorescence intensity was measured at an excitation of 488 nm and emission of 520 nm. […]
Spleen Bacteria Measurements. […] After a 48 hr incubation at 37° C., colony forming units (CFUs) were counted and converted to CFU/g of spleen tissue via the equations: […]

“(C11H22NO6P)n-CCCCSGSG-QQKFQFQFEQQ-NH2 (CCCCSGSGQQKFQFQFEQQ-NH2; not fully specified; cysteine pairing not given here; also: phosphorylcholine groups (C11H22NO6P) n=1-4, attachment not placed) [PCM-Q11, linear multi-PC conjugate]” was tested, and the “ZO-1 levels in colon after immunization” value (ZO-1) was “not significantly different”, the “occludin levels in colon after immunization” value (occludin) was “not significantly different” and the “anti-PC IgG responses in mice with prior DSS colitis” value (C57BL/6 mice; i.p. days 20, 32, 45, without CpG, vs immunization in absence of prior colitis) was “higher anti-PC IgG responses”. The “IgG subclasses in mice with prior DSS colitis” value (C57BL/6 mice; mouse, in vivo) was “not altered” and the “anti-PC IgM response in mice with prior DSS colitis” value (C57BL/6 mice; without CpG) was “measurable anti-PC IgM response”.
